Reference: patent US7560241B2, “Methods and compositions for modulating mitochondrial aldehyde dehydrogenase-2” (The Board of Trustees of the Leland Stanford Junior …, priority 2003, dated 2009)
Where “and” joins values, the source holds several entries; their conditions need not be identical. Equal entries are not always repeated. Entries after “also recorded” stand apart in the source; their conditions may differ. Where two headings read alike, the source gives them in different places.

Assays:
[1] = system: rat hearts; test: ischemia/reperfusion damage in ex vivo Langendorff rat hearts, infarct size by TTC staining; details: for ischemic damage by TTC staining of heart sections: ischemia/reperfusion
[2] = system: AldDH2; test: aldehyde dehydrogenase enzymatic activity in homogenates of ex vivo Langendorff rat hearts (NADH at 340 nm, acetaldehyde substrate); assay type: biochemical; details: for inhibition of AldDH2: during ischemia reperfusion; for rate of NADH accumulation (absorbance at 340 nm), FIG. 4: ethanol before ischemia vs I/R alone or normoxia, cyanamide in ethanol treated ischemic or normoxic samples
Experimental: Ex vivo Langendorff preparation of rat hearts were used as a model to assess the damage incurred by no-flow ischemia and reperfusion injury. This is an experimental model that mimics the clinical situation of myocardial infarction in patients. Rat hearts were excised and cannulated on a Langendorff apparatus via the aorta. Retrograde perfusion was carried out using the standard oxygenated Kreb-Hensleit buffer maintained at 37° C. All hearts were stabilized by an initial 5- to 10-minute perfusion period followed by delivery of different cardioprotective agents or AldDH2 inhibitors for 10-30 minutes, depending on the reagent. […] Ischemia was then introduced by 25 minutes of no-flow followed by 60 minutes of reperfusion. The degree of ischemia/reperfusion damage was measured by two independent commonly accepted parameters. […] In another assay, creatine phosphate kinase activity was measured from reperfusate of each heart collected during reperfusion. […] Homogenates from each heart was also obtained from a separate section of the identical sample and analyzed for aldehyde dehydrogenase enzymatic activity. Enzymatic activity was determined by a standard spectrophotometric method described above using acetaldehyde as the substrate and NAD^+ as a cofactor. FIG. 2: An experimental protocol using an ex vivo Langendorff heart. Rat hearts were excised and cannulated on a Langendorff apparatus via aorta. Retrograde perfusion was carried out using the standard oxygenated Kreb-Hensleit buffer maintained at 37° C. […] Peptides used were a selective activator (εV1-7) or inhibitor (εV1-2) or epsilon protein kinase C (εPKC). Ischemia was then introduced by 25 minutes of no-flow followed by 60 minutes of reperfusion. […] FIG. 3: Formation of acetic acid from acetaldehyde by action of aldehyde dehydrogenase. Enzymatic activity of aldehyde dehydrogenase is determined by a standard photospectrometric method using acetaldehyde as a substrate. In this reaction, aldehyde dehydrogenase catalyzes the oxidation of acetaldehyde to acetic acid. Concomitantly, NAD^+ is reduced to NADH resulting in an increase in absorbance at 340 nm wavelength in a photospectrometer. The rate of NADH increase is proportional to the enzymatic activity of aldehyde dehydrogenase.

Structure (SMILES)	increase in infarct damage [1]	increase in ischemia/reperfusion damage as measured by infarct size [1]	effect on induction of AldDH2 activity by ethanol or εPKC agonist peptide ([2]; co-treatment, ischemia/reperfusion)	inhibition of AldDH2 ([2]; cyanamide treatment in the absence of ethanol or peptide)	inhibition of AldDH2 ([2]; cyanamide treatment in the presence of ethanol)	inhibition of AldDH2 ([2]; cyanamide treatment in the presence of peptide)	rate of NADH accumulation (absorbance at 340 nm), FIG. 4 [2]	AldDH2 activity in normoxic heart samples ([2]; normoxic)	increase in ischemia/reperfusion damage as measured by infarct size ([1]; agent alone, compared to no treatment control)	increase in infarct damage ([1]; in samples treated with ethanol)	increase in infarct damage ([1]; in samples treated with εPKC agonist peptide)	ischemic damage by TTC staining of heart sections ([1]; compared to control heart)	cardiac damage under normoxic condition ([1]; normoxic, compared to control heart)	increase in AldHD2 activity ([2]; as compared to ischemia/reperfusion control, ethanol 50 mM for 10 minutes, peptide 1 μM)
O=[N+]([O-])OCC(CO[N+](=O)[O-])O[N+](=O)[O-] [Nitroglycerin, nitroglycerin]	36% and 31%	29%	–	–	–	–	–	–	–	–	–	–	–	–
N#CN [cyanamide]	–	–	effect of induction is also greatly abolished	63%	64%	74%	reduction of NADH accumulation	inhibition of AldDH2 activity	49%	62%	56%	eliminates the protective effect of ethanol and leads to an even greater damage as compared to control	does not produce any significantly greater damage than the control heart; also recorded: did not lead to any greater cardiac damage	–
CCO [ethanol]	–	–	–	–	–	–	increase in the rate of absorbance	–	–	–	–	leads to cardioprotection	–	25%
